The structures appear in SMILES notation.

The test system of test [1] is CL2122 worms. As to the kind of experiment: Mobility of CL2122 control worms. In kind it is in vivo, C. elegans. The note with it: CL2122, day 1 to 4 and day 8 of adulthood; NR 1 mM, AZD 0.3 μM. How it is done:
Doxycycline was obtained from Sigma-Aldrich and dissolved in water. For experiments, a final concentration of 15 μg/mL was used. Olaparib (AZD2281) was dissolved in DMSO to experimental concentrations of 300 nM. Nicotinamide Riboside triflate (NR) was custom synthesized by Novalix (www.novalix-pharma.com/) and dissolved in water, and used at a final concentration of 1 mM. Compounds were added just before pouring the plates. For phenotyping experiments, parental F0 L4 worms were allowed to reach adulthood and lay eggs on the treatment plates. The deriving F1 worms were therefore exposed to compounds during the full life from eggs until death. For RNA analysis experiments, synchronized L1 worms were exposed to the compounds until harvest. To ensure a permanent exposure to the compound, plates were changed twice a week.
Mobility: C. elegans movement analysis was performed as described, starting from day 1 of adulthood, using the Movement Tracker software. The experiments were repeated at least twice.

Test [2] concerns CL2122 worms. As to the kind of experiment: Transcript analysis of the MSR in CL2122 control worms. Type of test: in vivo, C. elegans. The note with it: CL2122, day 1 of adulthood; dox 15 μg/mL, NR 1 mM, AZD 0.3 μM. The procedure:
C. elegans: A total of ˜3000 worms per condition, divided in 3 biological replicates, was recovered in M9 buffer from NGM plates and lysed in the TriPure RNA reagent. Each experiment was repeated twice. Total RNA was transcribed to cDNA using QuantiTect Reverse Transcription Kit (Qiagen). Expression of selected genes was analyzed using the LightCycler480 system (Roche) and LightCycler® 480 SYBR Green I Master reagent (Roche). For C. elegans, 2 housekeeping genes were used to normalize the expression data, namely actin (act-1) and peroxisomal membrane protein 3 (pmp-3).
atfs-1p::atfs-1 expression vector was created by amplifying 1488 bp sequence upstream from the transcription start site of atfs-1 coding region by using worm genomic DNA for the promoter region. […] The correctness of the atfs-1p::atfs-1 construct was assessed by sequencing with the indicated pPD30.38 and atfs-1 seq. primers. Two independent GMC101 lines (AUW9 and AUW10), and one CL2122 strain (AUW11) carrying atfs-1p::atfs-1 transgene as extrachromosomal array were analyzed in the study. […] The deriving F1 worms were shifted from 20° C. to 25° C. at the L4 stage to induce amyloid accumulation and paralysis, and phenotypes assessed over time as indicated. […]

Regarding `O=C(c1cc(Cc2n[nH]c(=O)c3ccccc23)ccc1F)N1CCN(C(=O)C2CC2)CC1` [AZD, Olaparib, reference compound], the “fitness (mobility) of control strain” value in the test on CL2122 worms [1] is listed as “only improved CL2122 fitness during aging”. Moreover, the “MSR transcripts in control strain” value in the test with CL2122 worms [2] is “induction of the MSR was also consistently observed”.
Take `NC(=O)c1ccc[n+]([C@@H]2O[C@H](CO)[C@@H](O)[C@H]2O)c1` [NR, Nicotinamide Riboside triflate]: the “fitness (mobility) of control strain” value in the test on CL2122 worms [1] is “only improved CL2122 fitness during aging”. In addition, the “MSR transcripts in control strain” value in the test on CL2122 worms [2] was “induction of the MSR was also consistently observed”.
